Reference: patent US20240083908A1, “TETRAHYDROTHIENOPYRIMIDINESULFONAMIDE COMPOUNDS” (priority 2020, published 2024)

Target: human recombinant PARG (Homo sapiens (Human), UniProt Q86W56)
Assay: PARG Activity Assay
Format: biochemical
Details: recombinant human PARG 0.0185 nM, 1 hour pre-incubation, poly (ADP-ribose) substrate-coated plate, Abs 450
Procedure: In order to evaluate the PARG inhibitory activity of the present compound, the inhibitory activity of each test compound against human recombinant PARG was measured. The specific procedure is described below.
Test compound was dissolved in dimethyl sulfoxide and prepared a 10 mM stock solution.
PARG Activity Assay was performed in Streptavidin-coated 96-well plates. […] The substrate solution was added to the 96-well plate at the volume of 200 micro liter per well and incubated for 3 hours at room temperature. After the incubation, the substrate solution was discarded and assay plate was washed 4 times with 220 micro liter of PBS containing 0.1% Tween20 (PBST). […] The diluted enzyme solution was pre-incubated with compounds for 1 hour at room temperature in a 96-well plate and transferred 100 micro liter per well to the poly (ADP-ribose) substrate-coated assay plate. The plate was incubated for 1 hour at 25° C. and then washed 4 times with 220 micro liters of PBST. For the detection of non-digested poly (ADP-ribose) polymer on the plate, mouse anti-poly (ADP-ribose) antibody diluted with 0.2% BSA containing PBS was added 100 micro liters per well and incubated 1 hour at room temperature. Plate was washed 4 times with TBST and 100 micro liter of HRP-labeled anti-mouse Ig antibody was added to the wells. Plate was incubated for 30 minutes at room temperature and then washed 4 times with PBST. For the detection 100 micro liters of TMB substrate solution was added to the wells. After sufficient color development, reaction was stopped by addition of 50 micro liter of 0.2 M […]. The 450 nm absorbance (Abs 450) of each well was read with a micro plate reader. The assay was performed by duplicated and average of 2 independent assays were used for the determination of PARG inhibitor y activity.
Wells treated with dimethyl sulfoxide instead of test compound solution were designated as a Negative Control of assay
Wells treated with 0.2% BSA containing PBS instead of recombinant human PARG protein and with dimethyl sulfoxide instead of test compound solution were designated as a Positive Control of assay.
The PARG Inhibitory Activity (%) was determined by the following formulation.
PARG Inhibitory Activity (%)=[(AbsX−AbsA)/(AbsB−AbsA)]×100
(wherein, • AbsA is absorbance (Abs 450) of Negative Control wells • AbsB is absorbance (Abs 450) of Positive Control wells • AbsX is absorbance (Abs 450) of wells treated with test compound.)
In Table, Ex indicates an Example number shown below.

Sequence of human recombinant PARG (Q86W56 whole entry): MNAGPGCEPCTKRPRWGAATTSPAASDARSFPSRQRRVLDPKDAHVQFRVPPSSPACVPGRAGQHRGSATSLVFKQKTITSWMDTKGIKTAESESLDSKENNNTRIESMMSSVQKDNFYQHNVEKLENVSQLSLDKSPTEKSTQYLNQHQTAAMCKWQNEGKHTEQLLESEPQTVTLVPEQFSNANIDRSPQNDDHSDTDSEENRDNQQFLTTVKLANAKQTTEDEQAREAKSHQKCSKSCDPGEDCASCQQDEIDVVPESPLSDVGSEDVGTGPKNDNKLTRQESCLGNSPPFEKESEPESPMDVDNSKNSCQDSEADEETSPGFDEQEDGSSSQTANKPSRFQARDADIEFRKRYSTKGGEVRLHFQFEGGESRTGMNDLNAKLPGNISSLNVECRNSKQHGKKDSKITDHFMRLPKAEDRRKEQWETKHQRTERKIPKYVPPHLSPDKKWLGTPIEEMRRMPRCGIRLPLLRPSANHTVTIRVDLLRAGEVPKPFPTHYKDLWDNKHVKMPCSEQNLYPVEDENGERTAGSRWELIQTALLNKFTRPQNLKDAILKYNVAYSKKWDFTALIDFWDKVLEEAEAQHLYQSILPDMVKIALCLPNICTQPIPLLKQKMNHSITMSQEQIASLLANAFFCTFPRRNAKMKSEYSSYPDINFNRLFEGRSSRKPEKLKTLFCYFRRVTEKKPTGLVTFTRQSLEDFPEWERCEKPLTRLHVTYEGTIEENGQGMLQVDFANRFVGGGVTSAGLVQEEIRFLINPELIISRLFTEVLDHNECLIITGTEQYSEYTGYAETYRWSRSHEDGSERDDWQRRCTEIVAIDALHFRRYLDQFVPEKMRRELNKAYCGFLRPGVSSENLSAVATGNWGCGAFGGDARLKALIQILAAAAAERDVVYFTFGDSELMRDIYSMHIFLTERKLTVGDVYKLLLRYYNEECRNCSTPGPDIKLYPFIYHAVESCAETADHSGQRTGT

| Structure (SMILES) | IC50 |
| --- | --- |
| Cc1cc(Cn2c(=O)n(Cc3cnc(C)s3)c(=O)c3cc(S(=O)(=O)NC4(C)CC4)sc32)n(C)n1 [Ex 3] | 0.029 µM |
| Cc1ncc(Cn2c(=O)c3cc(S(=O)(=O)NC4(C)CC4)sc3n(Cc3ccc4[nH]ncc4c3)c2=O)s1 [Ex 4] | 0.011 µM |
| Cc1ncc(Cn2c(=O)c3cc(S(=O)(=O)NC4(C)CC4)sc3n(Cc3ccc4cn[nH]c4c3)c2=O)s1 [Ex 5] | 0.012 µM |
| Cc1ncc(Cn2c(=O)c3cc(S(=O)(=O)NC4(C)CC4)sc3n(CCOC3CNC3)c2=O)s1 [Ex 7] | 0.21 µM |
| Cc1ncc(Cn2c(=O)c3cc(S(=O)(=O)NC4(C)CC4)sc3n(CCCN)c2=O)s1 [Ex 9] | 1.07 µM |
| Cc1ncc(Cn2c(=O)c3cc(S(=O)(=O)NC4(C)CC4)sc3n(Cc3cnc4[nH]ccc4c3)c2=O)s1 [Ex 10] | 0.016 µM |
| Cc1ncc(Cn2c(=O)c3cc(S(=O)(=O)NC4(C)CC4)sc3n(Cc3ccc4cc[nH]c4c3)c2=O)s1 [Ex 11] | 0.16 µM |
| Cc1ncc(Cn2c(=O)c3cc(S(=O)(=O)NC4(C)CC4)sc3n(Cc3ccc4c(c3)OCC4)c2=O)s1 [Ex 13] | 0.041 µM |
| Cc1ncc(Cn2c(=O)c3cc(S(=O)(=O)NC4(C)CC4)sc3n(CC3CCOCC3)c2=O)s1 [Ex 14] | 0.32 µM |
| Cc1ncc(Cn2c(=O)c3cc(S(=O)(=O)NC4(C)CC4)sc3n(CC3CCCO3)c2=O)s1 (stereo not drawn) [Ex 15] | 0.6 µM |
| Cc1ncc(Cn2c(=O)c3cc(S(=O)(=O)NC4(C)CC4)sc3n(CC3CCOC3)c2=O)s1 (stereo not drawn) [Ex 16] | 0.97 µM |
| Cc1ncc(Cn2c(=O)c3cc(S(=O)(=O)NC4(C)CC4)sc3n(CC3CCCOC3)c2=O)s1 (stereo not drawn) [Ex 17] | 0.47 µM |
| Cc1ncc(Cn2c(=O)c3cc(S(=O)(=O)NC4(C)CC4)sc3n(Cc3nc4ccccc4[nH]3)c2=O)s1 [Ex 18] | 0.58 µM |
| Cc1ncc(Cn2c(=O)c3cc(S(=O)(=O)NC4(C)CC4)sc3n(Cc3cc4n(n3)CCOC4)c2=O)s1 [Ex 19] | 0.13 µM |
| Cc1ncc(Cn2c(=O)c3cc(S(=O)(=O)NC4(C)CC4)sc3n(Cc3nc4c(o3)CCCC4)c2=O)s1 [Ex 20] | 0.11 µM |
| CCNS(=O)(=O)c1cc2c(=O)n(Cc3cnc(C)s3)c(=O)n(CC3CC3)c2s1 [Ex 21] | 75.5 µM |
| Cc1ncc(Cn2c(=O)c3cc(S(=O)(=O)NC(C)C)sc3n(CC3CC3)c2=O)s1 [Ex 22] | 93.1 µM |
| CNS(=O)(=O)c1cc2c(=O)n(Cc3cnc(C)s3)c(=O)n(CC3CC3)c2s1 [Ex 23] | 97 µM |
| Cc1ncc(Cn2c(=O)c3cc(S(=O)(=O)NC4CC4)sc3n(CC3CC3)c2=O)s1 [Ex 24] | 2.22 µM |
| Cn1cc(Cn2c(=O)c3cc(S(=O)(=O)NC4(C)CC4)sc3n(CC3CC3)c2=O)cn1 [Ex 26] | 0.37 µM |
| CC#CCn1c(=O)n(Cc2cnn(C)c2)c(=O)c2cc(S(=O)(=O)NC3(C)CC3)sc21 [Ex 27] | 0.25 µM |

| Structure (SMILES) | IC50 |
| --- | --- |
| Cc1cc(Cn2c(=O)n(Cc3cnn(C)c3)c(=O)c3cc(S(=O)(=O)NC4(C)CC4)sc32)n(C)n1 [Ex 30] | 0.037 µM |
| Cc1cc(Cn2c(=O)n(Cc3cnn(C)c3)c(=O)c3cc(S(=O)(=O)NC4(C)CC4)sc32)[nH]n1 [Ex 31] | 0.029 µM |
| Cc1nn(C)cc1Cn1c(=O)n(Cc2cnn(C)c2)c(=O)c2cc(S(=O)(=O)NC3(C)CC3)sc21 [Ex 32] | 6.99 µM |
| Cn1cc(Cn2c(=O)c3cc(S(=O)(=O)NC4(C)CC4)sc3n(Cc3cc4n(n3)CCOC4)c2=O)cn1 [Ex 33] | 0.035 µM |
| Cn1cc(Cn2c(=O)c3cc(S(=O)(=O)NC4(C)CC4)sc3n(Cc3cncnc3)c2=O)cn1 [Ex 34] | 0.3 µM |
| Cn1cc(Cn2c(=O)c3cc(S(=O)(=O)NC4(C)CC4)sc3n(Cc3cnc(C#N)s3)c2=O)cn1 [Ex 35] | 0.035 µM |
| Cn1cc(Cn2c(=O)c3cc(S(=O)(=O)NC4(C)CC4)sc3n(Cc3cnc4[nH]ccc4c3)c2=O)cn1 [Ex 37] | 0.009 µM |
| Cn1cc(Cn2c(=O)c3cc(S(=O)(=O)NC4(C)CC4)sc3n(Cc3ccc4[nH]ncc4c3)c2=O)cn1 [Ex 38] | 0.0041 µM |
| Cn1cc(Cn2c(=O)c3cc(S(=O)(=O)NC4(C)CC4)sc3n(Cc3ccc4[nH]c(=O)oc4c3)c2=O)cn1 [Ex 39] | 0.021 µM |
| Cn1cc(Cn2c(=O)c3cc(S(=O)(=O)NC4(C)CC4)sc3n(Cc3cc4c(cn3)COC4)c2=O)cn1 [Ex 41] | 0.097 µM |
| COc1cncc(Cn2c(=O)n(Cc3cnn(C)c3)c(=O)c3cc(S(=O)(=O)NC4(C)CC4)sc32)c1 [Ex 42] | 0.04 µM |
| COc1cc(Cn2c(=O)n(Cc3cnn(C)c3)c(=O)c3cc(S(=O)(=O)NC4(C)CC4)sc32)ccn1 [Ex 43] | 0.029 µM |
| COc1ccc(Cn2c(=O)n(Cc3cnn(C)c3)c(=O)c3cc(S(=O)(=O)NC4(C)CC4)sc32)cn1 [Ex 44] | 0.048 µM |
| CN1Cc2cc(Cn3c(=O)n(Cc4cnn(C)c4)c(=O)c4cc(S(=O)(=O)NC5(C)CC5)sc43)ccc2C1=O [Ex 45] | 0.013 µM |
| Cn1cc(Cn2c(=O)c3cc(S(=O)(=O)NC4(C)CC4)sc3n(Cc3ccc(F)cc3)c2=O)cn1 [Ex 46] | 0.0092 µM |
| Cn1cc(Cn2c(=O)c3cc(S(=O)(=O)NC4(C)CC4)sc3n(Cc3ccc(Cl)c(F)c3)c2=O)cn1 [Ex 47] | 0.13 µM |
| Cn1cc(Cn2c(=O)c3cc(S(=O)(=O)NC4(C)CC4)sc3n(Cc3ccc(F)c(Cl)c3)c2=O)cn1 [Ex 48] | 0.12 µM |
| Cn1cc(Cn2c(=O)c3cc(S(=O)(=O)NC4(C)CC4)sc3n(Cc3ccc(C4CC4)cc3)c2=O)cn1 [Ex 49] | 0.095 µM |
| Cn1cc(Cn2c(=O)c3cc(S(=O)(=O)NC4(C)CC4)sc3n(Cc3ccc(OC(F)F)cc3)c2=O)cn1 [Ex 51] | 0.033 µM |
| Cn1cc(Cn2c(=O)c3cc(S(=O)(=O)NC4(C)CC4)sc3n(Cc3ccc(OC(F)(F)F)cc3)c2=O)cn1 [Ex 52] | 0.1 µM |
| Cn1cc(Cn2c(=O)c3cc(S(=O)(=O)NC4(C)CC4)sc3n(Cc3ccc(C#N)cc3)c2=O)cn1 [Ex 53] | 0.052 µM |

| Structure (SMILES) | IC50 |
| --- | --- |
| CNc1ncc(Cn2c(=O)n(Cc3cnn(C)c3)c(=O)c3cc(S(=O)(=O)NC4(C)CC4)sc32)cn1 [Ex 54] | 0.049 µM |
| Cn1cc(Cn2c(=O)c3cc(S(=O)(=O)NC4(C)CC4)sc3n(Cc3cnn(CC(F)F)c3)c2=O)cn1 [Ex 56] | 0.036 µM |
| COCc1ncc(Cn2c(=O)n(Cc3cnn(C)c3)c(=O)c3cc(S(=O)(=O)NC4(C)CC4)sc32)s1 [Ex 58] | 0.26 µM |
| Cn1cc(Cn2c(=O)c3cc(S(=O)(=O)NC4(C)CC4)sc3n(Cc3ccc4c(c3)CCO4)c2=O)cn1 [Ex 59] | 0.022 µM |
| Cn1cc(Cn2c(=O)c3cc(S(=O)(=O)NC4(C)CC4)sc3n(Cc3ccc4c(c3)CNC4=O)c2=O)cn1 [Ex 60] | 0.024 µM |
| Cn1cc(Cn2c(=O)c3cc(S(=O)(=O)NC4(C)CC4)sc3n(Cc3ccc4c(c3)C(=O)NC4)c2=O)cn1 [Ex 61] | 0.011 µM |
| CN1Cc2ccc(Cn3c(=O)n(Cc4cnn(C)c4)c(=O)c4cc(S(=O)(=O)NC5(C)CC5)sc43)cc2C1=O [Ex 62] | 0.029 µM |
| Cn1cc(Cn2c(=O)c3cc(S(=O)(=O)NC4(C)CC4)sc3n(Cc3cnc4c(c3)OCCO4)c2=O)cn1 [Ex 65] | 0.068 µM |
| Cn1cc(Cn2c(=O)c3cc(S(=O)(=O)NC4(C)CC4)sc3n(Cc3ccc4c(c3)CNC4)c2=O)cn1 [Ex 66] | 0.046 µM |
| CN1Cc2ccc(Cn3c(=O)n(Cc4cnn(C)c4)c(=O)c4cc(S(=O)(=O)NC5(C)CC5)sc43)cc2C1 [Ex 67] | 0.1 µM |
| Cn1cc(Cn2c(=O)c3cc(S(=O)(=O)NC4(C)CC4)sc3n(Cc3ccc(OC4CCC4)cc3)c2=O)cn1 [Ex 69] | 0.28 µM |
| Cn1cc(Cn2c(=O)c3cc(S(=O)(=O)NC4(C)CC4)sc3n(Cc3ccc(F)c(C#N)c3)c2=O)cn1 [Ex 70] | 0.06 µM |
| CN(C)c1ccc(Cn2c(=O)n(Cc3cnn(C)c3)c(=O)c3cc(S(=O)(=O)NC4(C)CC4)sc32)cc1F [Ex 71] | 0.12 µM |
| CCN(C)c1ccc(Cn2c(=O)n(Cc3cnn(C)c3)c(=O)c3cc(S(=O)(=O)NC4(C)CC4)sc32)cc1F [Ex 72] | 0.19 µM |
| CNc1ccc(Cn2c(=O)n(Cc3cnn(C)c3)c(=O)c3cc(S(=O)(=O)NC4(C)CC4)sc32)cc1F [Ex 73] | 0.017 µM |
| CN(c1ccc(Cn2c(=O)n(Cc3cnn(C)c3)c(=O)c3cc(S(=O)(=O)NC4(C)CC4)sc32)cc1F)C1CC1 [Ex 74] | 0.21 µM |
| COCCN(C)c1ccc(Cn2c(=O)n(Cc3cnn(C)c3)c(=O)c3cc(S(=O)(=O)NC4(C)CC4)sc32)cc1F [Ex 75] | 0.13 µM |
| CN(CCO)c1ccc(Cn2c(=O)n(Cc3cnn(C)c3)c(=O)c3cc(S(=O)(=O)NC4(C)CC4)sc32)cc1F [Ex 76] | 0.057 µM |
| COCCNc1ncc(Cn2c(=O)n(Cc3cnn(C)c3)c(=O)c3cc(S(=O)(=O)NC4(C)CC4)sc32)cn1 [Ex 79] | 0.07 µM |
| Cn1cc(Cn2c(=O)c3cc(S(=O)(=O)NC4(C)CC4)sc3n(Cc3cnc(NCCO)nc3)c2=O)cn1 [Ex 80] | 0.42 µM |
| Cn1cc(Cn2c(=O)c3cc(S(=O)(=O)NC4(C)CC4)sc3n(Cc3ccc(N4CCOCC4)nc3)c2=O)cn1 [Ex 81] | 0.2 µM |
